# According to patent US4256731A, “Oral Compositions” (priority 1979, dated 1981):
# Experiment: in vitro stain assay: inhibition of alexidine dihydrochloride mediated stain on saliva-coated hydroxylapatite, 5% tannic acid as staining agent
# Conditions: tested in triplicate, pH and acid:alexidine mole ratio as listed per formulation
# Experimental: Methods: The substrate for the in vitro stain assay was a saliva-coated hydroxylapatite and the staining agent was 5% tannic acid. Each formulation was tested in triplicate.
row,SMILES,% Inhibition of Alexidine . 2HCl Mediated Stain
1,N[C@@H](CC(=O)O)C(=O)O [Aspartic Acid],34%
2,O=C(O)CC(O)(CC(=O)O)C(=O)O [Citric Acid],32%
3,O=C(O)/C=C/C(=O)O [Fumaric Acid],44%
4,N[C@@H](CCC(=O)O)C(=O)O [Glutamic Acid],40%
5,Nc1ccc(C(=O)O)cc1 [p-Aminobenzoic Acid],22%
